Laboratory results as given in ChEMBL document CHEMBL1140018, “Synthesis and structure-activity relationship of imidazo(1,2-a)thieno(3,2-e)pyrazines as IKK-beta inhibitors” (Bioorg Med Chem Lett, 2007).
Calls of active or inactive are those of the source. No cut-off for these calls is given here.

What was measured:
Liver microsomes = experiment: Metabolic stability in human liver microsomes; assay type: ADME, Microsome
Liver = experiment: Metabolic stability in mouse liver microsomes; assay type: ADME, Microsome
[1] = target: T1, Inhibitor of nuclear factor kappa-B kinase subunit beta (Homo sapiens, UniProt O14920)
T1 sequence (O14920 whole entry): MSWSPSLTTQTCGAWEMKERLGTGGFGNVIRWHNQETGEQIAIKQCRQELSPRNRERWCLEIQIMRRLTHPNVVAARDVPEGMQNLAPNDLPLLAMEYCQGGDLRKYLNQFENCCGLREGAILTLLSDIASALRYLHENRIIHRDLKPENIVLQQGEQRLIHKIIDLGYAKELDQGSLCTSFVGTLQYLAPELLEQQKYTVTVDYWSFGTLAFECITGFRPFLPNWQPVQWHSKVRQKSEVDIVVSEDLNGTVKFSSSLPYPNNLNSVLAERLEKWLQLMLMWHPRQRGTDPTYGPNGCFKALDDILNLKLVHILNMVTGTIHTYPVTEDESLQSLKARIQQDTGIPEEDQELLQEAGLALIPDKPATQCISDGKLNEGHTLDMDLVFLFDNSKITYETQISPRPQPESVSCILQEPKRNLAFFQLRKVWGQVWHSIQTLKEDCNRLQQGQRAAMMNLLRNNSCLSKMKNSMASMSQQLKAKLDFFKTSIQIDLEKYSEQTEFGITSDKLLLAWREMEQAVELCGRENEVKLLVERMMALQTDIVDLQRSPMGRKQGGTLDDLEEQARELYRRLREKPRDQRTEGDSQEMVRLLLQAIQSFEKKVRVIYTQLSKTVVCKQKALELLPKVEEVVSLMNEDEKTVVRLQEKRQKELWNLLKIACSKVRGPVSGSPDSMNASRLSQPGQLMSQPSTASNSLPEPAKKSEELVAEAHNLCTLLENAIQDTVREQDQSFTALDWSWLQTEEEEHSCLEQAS

[2] = target: T2, Inhibitor of nuclear factor kappa-B kinase subunit alpha (Homo sapiens, UniProt O15111)
T2 sequence (O15111 whole entry): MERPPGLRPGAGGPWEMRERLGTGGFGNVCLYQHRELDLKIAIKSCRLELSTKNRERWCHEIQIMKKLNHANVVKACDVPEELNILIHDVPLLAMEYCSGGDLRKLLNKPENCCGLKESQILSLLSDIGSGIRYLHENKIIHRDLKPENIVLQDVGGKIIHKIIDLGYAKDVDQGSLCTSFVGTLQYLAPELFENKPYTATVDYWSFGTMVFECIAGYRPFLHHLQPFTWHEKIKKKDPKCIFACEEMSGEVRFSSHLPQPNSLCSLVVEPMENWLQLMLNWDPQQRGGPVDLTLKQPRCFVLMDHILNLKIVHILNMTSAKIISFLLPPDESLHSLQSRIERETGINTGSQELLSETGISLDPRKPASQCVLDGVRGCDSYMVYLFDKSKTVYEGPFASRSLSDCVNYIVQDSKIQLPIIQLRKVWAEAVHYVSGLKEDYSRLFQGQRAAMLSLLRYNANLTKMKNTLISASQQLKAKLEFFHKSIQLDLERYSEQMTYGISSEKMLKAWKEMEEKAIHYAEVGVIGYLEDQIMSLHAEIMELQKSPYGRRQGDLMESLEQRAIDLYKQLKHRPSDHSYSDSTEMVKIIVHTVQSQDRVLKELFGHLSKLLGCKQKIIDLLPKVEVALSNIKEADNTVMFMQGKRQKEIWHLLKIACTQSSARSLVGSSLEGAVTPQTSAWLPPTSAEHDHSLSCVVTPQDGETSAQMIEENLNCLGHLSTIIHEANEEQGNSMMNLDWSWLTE

[3] = Cytotoxicity against Jurkat cells by Alamar blue assay; conditions: human
[4] = Tmax in mouse at 10 mg/kg, po; assay type: ADME, organism-based; parameters: dose 10 mg/kg, route oral; conditions: in vivo
PBMC = experiment: Inhibition of LPS-induced TNFalpha production in PBMC; assay type: functional, cell-based; conditions: Homo sapiens
Jurkat = experiment: Inhibition of TNF-alpha-induced response in Jurkat cells; conditions: Homo sapiens
[5] = AUC(1 to 4 hrs) in mouse at 10 mg/kg, po; assay type: ADME, organism-based; parameters: time upper 4 hr, time lower 1 hr, dose 10 mg/kg, route oral; conditions: plasma
[6] = Cmax in mouse at 10 mg/kg, po; assay type: ADME, organism-based; parameters: dose 10 mg/kg, route oral; conditions: in vivo
[7] = target: T3, Inhibitor of nuclear factor kappa-B kinase subunit epsilon (Homo sapiens) (UniProt Q14164); experiment: Inhibition of IKKepsilon
T3 sequence (whole entry): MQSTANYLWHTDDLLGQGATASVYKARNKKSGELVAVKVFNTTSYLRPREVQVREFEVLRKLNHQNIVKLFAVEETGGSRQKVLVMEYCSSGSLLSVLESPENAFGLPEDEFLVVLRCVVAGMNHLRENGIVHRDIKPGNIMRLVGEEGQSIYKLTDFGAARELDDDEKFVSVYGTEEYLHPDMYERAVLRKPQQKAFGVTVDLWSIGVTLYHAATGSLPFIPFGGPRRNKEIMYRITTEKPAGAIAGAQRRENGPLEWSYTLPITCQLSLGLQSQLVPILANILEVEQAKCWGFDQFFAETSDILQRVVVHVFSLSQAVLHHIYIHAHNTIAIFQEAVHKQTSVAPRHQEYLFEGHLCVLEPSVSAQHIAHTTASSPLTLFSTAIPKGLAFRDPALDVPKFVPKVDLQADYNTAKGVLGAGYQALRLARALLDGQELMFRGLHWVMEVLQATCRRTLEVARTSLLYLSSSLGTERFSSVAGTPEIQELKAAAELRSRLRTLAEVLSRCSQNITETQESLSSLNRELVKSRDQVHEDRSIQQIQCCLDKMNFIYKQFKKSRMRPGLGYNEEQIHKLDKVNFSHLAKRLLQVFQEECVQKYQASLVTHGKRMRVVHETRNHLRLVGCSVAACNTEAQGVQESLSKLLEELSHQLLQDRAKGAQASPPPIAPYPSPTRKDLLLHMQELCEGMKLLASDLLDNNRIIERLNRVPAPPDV

| SMILES | Stability (Liver microsomes) [nmol/mg/min] | Stability (Liver) [nmol/mg/min] | IC50 [1] [nM] | IC50 [2] [nM] | CC50 ([3]; Jurkat cells) [nM] | Tmax [4] [min] | EC50 (PBMC) [nM] | EC50 (Jurkat) [nM] | AUC(0-t) [5] [µM·h] | Cmax [6] [nM] | Activity [7] | CC50 ([3]; jurkat) [nM] |
| --- | --- | --- | --- | --- | --- | --- | --- | --- | --- | --- | --- | --- |
| CNc1nc2cc(-c3cccc(CC(N)=O)c3)sc2n2c(C)cnc12 | 0.062 | 0.13 | 8 | 680 | > 100000 | 30 | 65 | 360 | 0.63 | 290 |  |  |
| CNc1nc2cc(-c3cccc(CCNC(N)=O)c3)sc2n2c(C)cnc12 |  |  | 18 | 130 | > 100000 |  |  | 550 |  |  | inactive |  |
| CNc1nc2cc(-c3cccc(CNS(N)(=O)=O)c3)sc2n2c(C)cnc12 | 0.035 | 0.231 | 3 | 170 | > 100000 | 60 | 95 | 270 |  |  |  |  |
| CNc1nc2cc(-c3cccc(C[C@@H](N)C(N)=O)c3)sc2n2c(C)cnc12 |  |  | 27 | 190 | 90000 |  |  | 690 |  |  |  |  |
| CNc1nc2cc(-c3cccc(CNC(C)=O)c3)sc2n2c(C)cnc12 |  |  | 38 | 770 | > 100000 |  |  | 2330 |  |  |  |  |
| Cc1cnc2c(NCCN)nc3cc(-c4ccc[nH]4)sc3n12 |  |  | 250 | 1260 | 7900 |  |  | 7960 |  |  |  |  |
| Cc1cnc2c(NCCN)nc3cc(-c4nccs4)sc3n12 |  |  | 230 | 1110 | 5900 |  |  | 18600 |  |  |  |  |
| Cc1cnc2c(NCC(N)=O)nc3cc(-c4ccccc4)sc3n12 |  |  | 360 | > 25000 | > 100000 |  |  | > 100000 |  |  |  |  |
| CNc1nc2cc(-c3cccc(CN)c3)sc2n2c(C)cnc12 |  |  | 8.5 | 220 | 19000 |  |  | 5880 |  |  | inactive |  |
| Cc1cnc2c(NCCN)nc3cc(-c4ccc(CO)cc4)sc3n12 |  |  | 23 | 2330 | 14000 |  |  | 40900 |  |  |  |  |
| CNc1nc2cc(-c3cccc(C(N)=O)c3)sc2n2c(C)cnc12 |  |  | 290 | > 30000 | > 100000 |  |  | 35600 |  |  |  |  |
| CNc1nc2cc(C)sc2n2c(C)cnc12 |  |  | 490 | 7830 | > 100000 |  |  | > 30000 |  |  |  |  |
| Cc1cnc2c(NCCN)nc3ccsc3n12 |  |  | 170 | 12100 | > 100000 |  |  | > 100000 |  |  |  |  |
| CNC(=O)CNCCc1cccc(-c2cc3nc(NC)c4ncc(C)n4c3s2)c1 |  |  | 51 | 1080 | 50000 |  |  | 1900 |  |  |  |  |
| Cc1cnc2c(NCCN)nc3cc(-c4ccncc4)sc3n12 |  |  | 270 | 2930 | > 100000 |  |  | 59600 |  |  |  |  |
| Cc1cnc2c(NCCO)nc3cc(-c4ccccc4)sc3n12 |  |  | 85 | 3480 | > 100000 |  |  | 7170 |  |  |  |  |
| COc1cccc(-c2cc3nc(NCCN)c4ncc(C)n4c3s2)c1 |  |  | 44 | 690 | 3500 |  |  | 29200 |  |  |  |  |
| CCNc1nc2cc(-c3ccccc3)sc2n2c(C)cnc12 |  |  | 260 | 1990 | > 100000 |  |  | 5730 |  |  |  |  |
| CNc1nc2cc(-c3cccc(CNC(N)=O)c3)sc2n2c(C)cnc12 | 0.066 | 0.221 | 43 | 260 | > 100000 | 30 | 68 | 340 | 0.38 | 150 |  |  |
| Cc1cnc2c(NCCN)nc3cc(-c4ccoc4)sc3n12 |  |  | 29 | 940 | > 100000 |  |  | 4530 |  |  |  |  |
| Cc1cnc2c(NCCN)nc3cc(-c4cccnc4)sc3n12 |  |  | 140 | 2570 | 49000 |  |  | 29500 |  |  |  |  |
| CNc1nc2ccsc2n2c(C)cnc12 |  |  | 520 | 4120 | > 100000 |  |  | > 3000 |  |  |  |  |
| COc1ccc(-c2cc3nc(NCCN)c4ncc(C)n4c3s2)cc1 |  |  | 95 | 2800 | > 100000 |  |  | > 30000 |  |  |  |  |
| CNc1nc2cc(-c3cccc(CC(N)C(=O)O)c3)sc2n2c(C)cnc12 (configuration not stated) |  |  | 13 | 1260 | > 100000 |  |  | > 100000 |  |  |  |  |
| Cc1cnc2c(NCCN)nc3cc(-c4cccc(CO)c4)sc3n12 |  |  | 8 | 450 |  |  |  | 2400 |  |  |  | 7000 |
| CNc1nc2cc(-c3cccc(CCC(=O)O)c3)sc2n2c(C)cnc12 |  |  | < 9 | 1340 | > 100000 |  |  | 4960 |  |  |  |  |
